How the values were obtained:
Format in all cases: toxicity, cell-based
[1] = tested on: HEK-293T; assay: Incucyte cell viability with HEK293T; details: human, 10 µM, compound concentration 10 uM
[2] = tested on: Fibroblast; assay: Incucyte cell viability with human fibroblast; details: 10 µM, compound concentration 10 uM
[3] = tested on: U2OS; assay: Incucyte cell viability with U2OS; details: human, 10 µM, compound concentration 10 uM
Also: unitless GR value; below 1 slowed growth and below 0 cell loss.

Structure (SMILES) | Growth Rate ([1]; 0 h, replicate number 1) | Growth Rate ([1]; 6 h, replicate number 2) | Growth Rate ([1]; 12 h, replicate number 2) | Growth Rate ([1]; 24 h, replicate number 2) | Growth Rate ([2]; 12 h, replicate number 2) | Growth Rate ([2]; 18 h, replicate number 2) | Growth Rate ([2]; 24 h, replicate number 1) | Growth Rate ([3]; 0 h, replicate number 1) | Growth Rate ([3]; 6 h, replicate number 1) | Growth Rate ([3]; 12 h, replicate number 2) | Growth Rate ([3]; 18 h, replicate number 1) | Growth Rate ([3]; 24 h, replicate number 1) | Growth Rate ([3]; 24 h, replicate number 2) | Growth Rate ([1]; 18 h, replicate number 1) | Growth Rate ([2]; 0 h, replicate number 1) | Growth Rate ([2]; 6 h, replicate number 2) | Growth Rate ([2]; 12 h, replicate number 1) | Growth Rate ([1]; 6 h, replicate number 1) | Growth Rate ([2]; 6 h, replicate number 1) | Growth Rate ([3]; 18 h, replicate number 2) | also measured
CC(=O)N1CCC(c2ccc(C(=O)NC(=N)N)cc2C(F)(F)F)CC1 [BI 9627] | 0.72 | 0.69 | 0.65 | 0.92 | 0.57 | 0.95 | 0.8 | 0.01 | 0.3 | 0.96 | 0.9 | 1 | 0.92 |  |  |  |  |  |  |  | Growth Rate ([1]; 18 h, replicate number 2): 0.77; Growth Rate ([2]; 24 h, replicate number 2): 0.76; Growth Rate ([3]; 0 h, replicate number 2): 0.44; Growth Rate ([3]; 12 h, replicate number 1): 0.75
CCc1nc(-c2cccc(C)c2)c(-c2ccncc2)s1 | -0.67 | 0.9 |  |  |  |  |  |  |  |  |  |  |  | 0.99 | -0.98 | 1 | 0.95 |  |  |  | Growth Rate ([2]; 0 h, replicate number 2): 0.64; Growth Rate ([3]; 0 h, replicate number 2): 0.65; Growth Rate ([3]; 6 h, replicate number 2): 0.83
O=C(Nc1cccc(C(F)(F)F)c1)c1cccc(-n2cc(-c3ccco3)nn2)c1 |  | 0.56 | 1 |  |  |  | 0.97 |  | 0.72 | 0.81 |  | 0.9 |  | 0.67 |  |  |  | 0.68 | 0.82 | 0.95 | Growth Rate ([1]; 12 h, replicate number 1): 0.8; Growth Rate ([1]; 24 h, replicate number 1): 0.76; Growth Rate ([2]; 0 h, replicate number 2): -0.94; Growth Rate ([3]; 0 h, replicate number 2): 0.15; Growth Rate ([3]; 12 h, replicate number 1): 0.78
Cc1ccc(C)c(OCCCC(C)(C)C(=O)O[C@@H]2O[C@H](C(=O)O)[C@@H](O)[C@H](O)[C@H]2O)c1 | 0.57 | 0.49 | 0.64 | 0.91 | 0.42 |  | 0.68 | 0.28 | 0.4 | 0.99 | 0.89 | 0.9 |  |  | 0.21 | -0.9 | -1 |  | 0.96 |  | Growth Rate ([1]; 18 h, replicate number 2): 0.87; Growth Rate ([2]; 18 h, replicate number 1): -0.29; Growth Rate ([2]; 24 h, replicate number 2): 0.89; Growth Rate ([3]; 0 h, replicate number 2): -0.96; Growth Rate ([3]; 6 h, replicate number 2): 0.89; Growth Rate ([3]; 12 h, replicate number 1): 0.78
CN1CCN(c2ccc(/C=C(\C#N)c3ccccc3Br)cc2)CC1.Cl.Cl |  | 0.54 | 0.47 | 0.71 | -0.18 | -0.18 | 0.05 |  | 0.94 |  |  |  |  | 0.38 | 0.9 | 0.09 | 0.42 | 0 | 0.32 |  | Growth Rate ([1]; 0 h, replicate number 2): -0.96; Growth Rate ([1]; 12 h, replicate number 1): 0.24; Growth Rate ([1]; 18 h, replicate number 2): 0.48; Growth Rate ([1]; 24 h, replicate number 1): 0.46; Growth Rate ([2]; 0 h, replicate number 2): 0.65; Growth Rate ([2]; 18 h, replicate number 1): 0.18; Growth Rate ([2]; 24 h, replicate number 2): -0.21
COCCNC1CCC(Nc2cc(-c3csc(NCC4(C#N)CCOCC4)n3)c(Cl)cn2)CC1 (stereo not drawn) | -0.55 | -0.42 | -0.48 | -0.35 | 0.24 | -0.14 | 0.14 | -1 |  | 0.08 | -0.21 |  | -0.03 | -0.33 | -1 |  | 0.4 | -0.19 | 0.99 | 0.04 | Growth Rate ([1]; 0 h, replicate number 2): 0.97; Growth Rate ([1]; 12 h, replicate number 1): -0.33; Growth Rate ([1]; 18 h, replicate number 2): -0.43; Growth Rate ([1]; 24 h, replicate number 1): -0.24; Growth Rate ([2]; 18 h, replicate number 1): 0.16; Growth Rate ([2]; 24 h, replicate number 2): -0.16; Growth Rate ([3]; 6 h, replicate number 2): 0.51
CCCNc1ccc2ncc(-c3ccncc3)n2n1 |  | -0.3 | -0.13 | -0.01 | 0.09 | 0.04 | 0.13 | -1 | 0.96 |  | 0.14 | 0.15 | 0.45 | -0.11 |  | 0.27 | 0.2 | -0.19 | 0.14 | 0.66 | Growth Rate ([1]; 12 h, replicate number 1): -0.26; Growth Rate ([1]; 24 h, replicate number 1): 0.02; Growth Rate ([2]; 0 h, replicate number 2): 0.59; Growth Rate ([2]; 18 h, replicate number 1): 0.11; Growth Rate ([2]; 24 h, replicate number 2): 0.09; Growth Rate ([3]; 12 h, replicate number 1): 0.48
CP(C)(=O)c1ccc(CNC(=O)C2CCN(S(=O)(=O)c3cc(Cl)cc(Cl)c3)CC2)cc1 |  |  |  |  |  |  |  | 0.11 | 0.37 | 0.85 | 0.74 | 0.87 | 0.89 | 0.9 |  |  |  |  |  | 0.9 | Growth Rate ([1]; 12 h, replicate number 1): 0.93; Growth Rate ([1]; 24 h, replicate number 1): 0.89; Growth Rate ([2]; 0 h, replicate number 2): -0.94; Growth Rate ([3]; 12 h, replicate number 1): 0.74
CN(C)C(=O)Cn1cc(-c2ccc(-c3cncc4ccccc34)cc2)cn1 | 0.29 |  |  |  | 0.98 |  |  | 0.61 | 0.46 | 0.83 | 0.99 | 0.9 |  |  | -1 | -0.33 |  | 0.92 | 0.8 |  | Growth Rate ([1]; 0 h, replicate number 2): 0.39
COc1ccc(-n2nc(C(F)(F)F)cc2-c2ccc(Cl)cc2)cc1 [SC-560] | 0.2 | 0.8 |  | 0.9 | 0.09 | 0.54 | 0.68 |  | 0.67 | 0.86 |  |  | 0.98 |  | -1 | -0.87 | 0.59 |  | 0.63 | 0.95 | Growth Rate ([1]; 0 h, replicate number 2): 0.61; Growth Rate ([2]; 18 h, replicate number 1): 0.62; Growth Rate ([2]; 24 h, replicate number 2): 0.62; Growth Rate ([3]; 6 h, replicate number 2): 0.83
O=C1NC(=Nc2c(Cl)cccc2Cl)S/C1=C\c1ccc2nccnc2c1 | 0.08 |  | 0.26 | 0.45 | 0.96 |  |  | 0.01 | 0.4 | 0.38 | 0.81 | 0.8 | 0.75 | 0.44 | 0.49 | 0.92 |  | 0.02 |  | 0.64 | Growth Rate ([1]; 0 h, replicate number 2): 0.44; Growth Rate ([1]; 12 h, replicate number 1): 0.48; Growth Rate ([1]; 18 h, replicate number 2): 0.35; Growth Rate ([1]; 24 h, replicate number 1): 0.52; Growth Rate ([3]; 6 h, replicate number 2): 0.31
Cc1nnc2n1-c1sc3c(c1C(c1ccccc1Cl)=NC2)C[C@H](C(=O)N1CCOCC1)C3 | -0.2 |  |  |  | 0.19 | 0.64 |  |  | 0.8 | 0.83 |  | 0.94 | 0.93 |  |  | -0.71 |  | 0.78 |  | 0.93 | Growth Rate ([1]; 0 h, replicate number 2): -0.35; Growth Rate ([2]; 24 h, replicate number 2): 0.94
CC(C)N(C(=O)C1CCOCC1)c1cc(F)c(Oc2ncc(Cn3nccn3)cc2C(F)(F)F)cc1C(=O)O |  |  |  |  |  |  |  | 0.83 | 0.91 |  |  |  | 0.93 |  | 0.24 |  | 0.85 |  | 0.7 | 0.98 | Growth Rate ([1]; 0 h, replicate number 2): 0.61; Growth Rate ([2]; 0 h, replicate number 2): -0.36
CCC(=O)N[C@H]1CC[C@@H](C(=O)N(C)c2ccc(-c3nc4ccccc4o3)cc2)C1 [BI 99179] |  | 0.11 | 0.26 | 0.69 |  | 0.98 | 0.79 | 0.2 | 0.68 | 0.65 | 0.98 | 0.86 | 0.96 | 0.31 |  | 0.58 | 0.5 | 0.1 | 0.53 | 0.87 | Growth Rate ([1]; 12 h, replicate number 1): 0.1; Growth Rate ([1]; 18 h, replicate number 2): 0.51; Growth Rate ([1]; 24 h, replicate number 1): 0.51; Growth Rate ([2]; 0 h, replicate number 2): -0.49; Growth Rate ([2]; 18 h, replicate number 1): 0.66; Growth Rate ([3]; 12 h, replicate number 1): 0.89
Cc1cc2c(-c3ccco3)cnc(N[C@@H]3CCN(C)C[C@H]3C(=O)NC3CCCCC3)c2[nH]c1=O [GSK789] | 0.12 |  |  |  |  |  |  | -0.1 | 0.92 |  |  |  | 1 |  |  | 0 |  |  | 0.33 |  | Growth Rate ([3]; 6 h, replicate number 2): 0.89; Growth Rate ([3]; 12 h, replicate number 1): 1
